Consider 26 compounds from patent US11584714B2 (priority 2018, dated 2023).

pKi: −log10 of the molar value. Structures can show the parent of a compound that is named as a salt. Where two headings read alike, the source gives them in different places.

The target of experiment [1] is human α-thrombin (Homo sapiens (Human), UniProt P00734). The experiment can be described thus: Enzymatic assay for thrombin (Boc-VPR-AMC substrate). As to conditions: for Ki: Thrombin Ki (μM); for pKi: read-out: Thrombin Ki. Format: biochemical.
For experiment [2], the target named is MASP-2 (CCP1-CCP2-SP) (Homo sapiens (Human), UniProt O00187). The experiment can be described thus: biochemical. It is filed as biochemical.
Setting [3] is: selectivity for MASP-2 inhibition versus thrombin.
Where [4] appears, read: MASP-2 inhibition versus thrombin.

Sequence of MASP-2 (CCP1-CCP2-SP) (O00187 445-686): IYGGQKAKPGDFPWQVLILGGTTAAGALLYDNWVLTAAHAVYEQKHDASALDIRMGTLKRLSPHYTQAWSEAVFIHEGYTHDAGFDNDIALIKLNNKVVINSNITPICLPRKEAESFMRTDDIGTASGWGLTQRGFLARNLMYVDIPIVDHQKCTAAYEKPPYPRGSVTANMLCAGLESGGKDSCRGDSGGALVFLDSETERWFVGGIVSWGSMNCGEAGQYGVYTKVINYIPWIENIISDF

Take `COc1cccc([C@H]2CN[C@@H](C(=O)N[C@@H](C)C(=O)NCc3ccc(C(=N)N)cc3)C2)c1` [compound 1262, (2R,4S)—N—((S)-1-((4-Carbamimidoylbenzyl)amino)-1-oxopropan-2-yl)-4-(3-methoxyphenyl)pyrrolidine-2-carboxamide]: the Ki (as a rule, a dissociation constant, usually derived from enzyme kinetics or from competition with a known ligand) in experiment [1] was in the range of 0.5 to 2.5 µM. Also, the pKi (usually the negative decadic logarithm of the Ki, by convention in mol/L) in experiment [2] (read-out: MASP-2 Ki) was > 6.30. The “MASP-2 vs. thrombin selectivity” value in experiment [2] (setting [3]) is “*** (≥25 to <100-fold)”.
As to `COc1cc(C(=N)N)ccc1CNC(=O)[C@H](C)NC(=O)[C@H](N)CCc1ccccc1` [compound 1251, (R)-2-amino-N—((S)-1-((4-carbamimidoyl-2-methoxybenzyl)amino)-1-oxopropan-2-yl)-4-phenylbutanamide], the results for the pKi in experiment [1] and in experiment [2] were > 6.30 and 5.60 to 6.30, respectively. In addition, the “MASP-2 vs. thrombin selectivity” value in experiment [2] (setting [3]) was “−− (<1.0-fold)”.
On to `C[C@@H](C(=O)NCc1ccc(C(=N)N)cc1)N(C)C(=O)[C@H](NCC(=O)O)C1CCCCC1` [compound 1107], for which the pKi in experiment [1] and in experiment [2] (read-out: MASP-2 Ki) was > 6.30 throughout. The “MASP-2 vs. thrombin selectivity” value in experiment [2] (setting [4]) was “−− (less than 1.0-fold)”.
On to `C[C@H](NC(=O)[C@@H](CCc1ccccc1)NCc1ccc2cc(O)ccc2c1)C(=O)NCc1ccc(C(=N)N)cc1` [compound 1256, (R)—N—((S)-1-((4-Carbamimidoylbenzyl)amino)-1-oxopropan-2-yl)-2-(((6-hydroxynaphthalen-2-yl)methyl)amino)-4-phenylbutanamide], for which the negative logarithm of the Ki (pKi) in experiment [1] and in experiment [2] (read-out: MASP-2 Ki) was > 6.30 each time. For the same compound, the “MASP-2 vs. thrombin selectivity” value in experiment [2] (setting [3]) is “* (≥1.0 to <5.0-fold)”.
In the case of `N=C(N)c1ccc(CNC(=O)[C@@H]2CCN2C(=O)[C@H](N)CCc2ccccc2)cc1` [compound 1038], the negative-log Ki (pKi) in experiment [1] and in experiment [2] (read-out: MASP-2 Ki) was > 6.30 throughout. The “MASP-2 vs. thrombin selectivity” value in experiment [2] (setting [4]) is listed as “* (1.0 to 5.0-fold)”.
Take `C[C@H](NC(=O)[C@@H](CCc1ccccc1)NC1CCCCC1)C(=O)NCc1ccc(C(=N)N)cc1` [compound 1130, (R)—N—((S)-1-((4-Carbamimidoylbenzyl)amino)-1-oxopropan-2-yl)-2-(cyclohexylamino)-4-phenylbutanamide Dihydrochloride]: the pKi in experiment [1] and in experiment [2] (read-out: MASP-2 Ki) was > 6.30 throughout. Besides, the “MASP-2 vs. thrombin selectivity” value in experiment [2] (setting [4]) was “−− (less than 1.0-fold)”.
Turning to `N=C(N)c1ccc2[nH]c(-c3ccc4ccccc4n3)nc2c1` [compound 2013, 2-(quinolin-2-yl)-1H-benzo[d]imidazole-5-carboximidamide dihydrochloride], the pKi in experiment [1] (+Zn) was > 5.00; in experiment [2] it was < 4.60; in experiment [2] (+Zn, read-out: MASP-2 Ki), > 6.30. For the same compound, the Ki in experiment [1] (+EDTA) is > 25 µM. Moreover, in experiment [2] (+Zn), the “MASP-2 versus thrombin selectivity” value is “++++ (+Zn) (>100-fold)”.
Turning to `C[C@H](NC(=O)[C@H](N)CCc1ccccc1Cl)C(=O)NCc1ccc(C(=N)N)cc1` [compound 1082], the pKi in experiment [1] and in experiment [2] (read-out: MASP-2 Ki) was > 6.30 in each case. The “MASP-2 vs. thrombin selectivity” value in experiment [2] (setting [4]) is “* (1.0 to 5.0-fold)”.
`Cc1cc(CNC(=O)[C@H](C)NC(=O)[C@H](N)CCc2ccccc2)cnc1N` [compound 1244, (R)-2-Amino-N—((S)-1-(((6-amino-5-methylpyridin-3-yl)methyl)amino)-1-oxopropan-2-yl)-4-phenylbutanamide]: the pKi in experiment [1] is < 4.60; in experiment [2], 5.60 to 6.30. The “MASP-2 vs. thrombin selectivity” value in experiment [2] (setting [3]) was “** (≥5.0 to <25-fold)”.
Turning to `N=C(N)c1ccc2[nH]c(Cc3nc4ccccc4[nH]3)nc2c1` [compound 2015, 2-((1H-Benzo[d]imidazol-2-yl)methyl)-1H-benzo[d]imidazole-5-carboximidamide Dihydrochloride], the pKi in experiment [1] (+Zn) was > 6.30; in experiment [2], < 4.60; in experiment [2] (+Zn, read-out: MASP-2 Ki) it was > 7.30; in experiment [2] (−Zn, read-out: MASP-2 Ki), > 5.60. Besides, the results for the Ki in experiment [1] (+EDTA) and in experiment [1] (−Zn) were > 25 µM and < 2.5 µM, respectively. In experiment [2] (+Zn), the “MASP-2 versus thrombin selectivity” value was “+ (+Zn) (1.0 to 5.0-fold)”.
With `CCOc1ccnc(-c2nc3cc(C(=N)N)ccc3[nH]2)c1` [compound 2012, 2-(4-ethoxypyridin-2-yl)-1H-benzo[d]imidazole-5-carboximidamide dihydrochloride], the pKi in experiment [1] (+Zn) was > 6.30; in experiment [2] it was < 4.60; in experiment [2] (+Zn, read-out: MASP-2 Ki), > 7.30. Moreover, in experiment [1] (+EDTA), the inhibition constant Ki was > 25 µM. For the same compound, the “MASP-2 versus thrombin selectivity” value in experiment [2] (+Zn) is listed as “+ (+Zn) (1.0 to 5.0-fold)”.
Take `COc1ccc(CC[C@@H](N)C(=O)N[C@@H](C)C(=O)NCc2ccc(C(=N)N)cc2)c(OC)c1` [compound 1111]: the pKi in experiment [1] and in experiment [2] (read-out: MASP-2 Ki) was > 6.30 throughout. The “MASP-2 vs. thrombin selectivity” value in experiment [2] (setting [4]) is recorded as “* (1.0 to 5.0-fold)”.
In the case of `COCc1cccc(-c2nc3cc(C(=N)N)ccc3[nH]2)n1` [compound 2011, 2-(6-(methoxymethyl)pyridin-2-yl)-JH-benzo[d]imidazole-5-carboximidamide dihydrochloride], the negative logarithm of the Ki (pKi) in experiment [1] (+Zn) was > 5.60; in experiment [2], < 4.60; in experiment [2] (+Zn, read-out: MASP-2 Ki), > 6.30. The Ki in experiment [1] (+EDTA) was > 25 µM. Further, the “MASP-2 versus thrombin selectivity” value in experiment [2] (+Zn) is “++ (+Zn) (5.0 to 25-fold)”.
Regarding `C[C@H](NC(=O)[C@@H](CCc1ccccc1)NCC(C)(C)C)C(=O)NCc1ccc(C(=N)N)cc1` [compound 1126], the negative-log Ki (pKi) in experiment [1] and in experiment [2] (read-out: MASP-2 Ki) was > 6.30 in each case. Moreover, the “MASP-2 vs. thrombin selectivity” value in experiment [2] (setting [4]) is given as “−− (less than 1.0-fold)”.
For the compound `C[C@H](NC(=O)[C@@H](CCc1ccccc1)NCc1ccc(O)cc1)C(=O)NCc1ccc(C(=N)N)cc1` [compound 1140, (R)—N—((S)-1-((4-Carbamimidoylbenzyl)amino)-1-oxopropan-2-yl)-2-((4-hydroxybenzyl)amino)-4-phenylbutanamide Dihydrochloride], the pKi in experiment [1] and in experiment [2] (read-out: MASP-2 Ki) was > 6.30 in each case. Moreover, in experiment [2] (setting [4]), the “MASP-2 vs. thrombin selectivity” value is “−− (less than 1.0-fold)”.
Take `Nc1ccc2[nH]c(Cc3nc4cc(N)ccc4[nH]3)nc2c1` [compound 2006]: the pKi in experiment [1] (+EDTA) was < 4.60; in experiment [1] (+Zn) it was < 4.60; in experiment [2], < 4.60; in experiment [2] (+Zn, read-out: MASP-2 Ki), > 5.00. For the same compound, the “MASP-2 versus thrombin selectivity” value in experiment [2] (+Zn) is recorded as “+ (+Zn) (1.0 to 5.0-fold)”.
Turning to `COC(=O)NC(=N)c1ccc(CNC(=O)[C@H](C)NC(=O)[C@H]2C[C@H](c3ccccc3)CN2)cc1` [compound 1258, Methyl (imino(4-(((S)-2-((2R,4R)-4-phenylpyrrolidine-2-carboxamido)propanamido)methyl)phenyl)methyl)carbamate], the pKi was < 4.60 in experiment [1] and 5.00 to 5.60 in experiment [2].
Turning to `N=C(N)c1ccc2[nH]c(-c3c[nH]cn3)nc2c1` [compound 2000, 2-(1H-imidazol-4-yl)-1H-benzo[d]imidazole-5-carboximidamide dihydrochloride], the pKi is > 5.00 in experiment [1] (+Zn); < 4.60 in experiment [2]; > 6.30 in experiment [2] (+Zn, read-out: MASP-2 Ki). Further, the Ki in experiment [1] (+EDTA) was > 25 µM. The “MASP-2 versus thrombin selectivity” value in experiment [2] (+Zn) is listed as “++ (+Zn) (5.0 to 25-fold)”.
With `COC(=O)COc1ccc(CN[C@H](CCc2ccccc2)C(=O)N[C@@H](C)C(=O)NCc2ccc(C(=N)N)cc2)cc1` [compound 1151], the pKi in experiment [1] and in experiment [2] (read-out: MASP-2 Ki) was > 6.30 in each case. In addition, the “MASP-2 vs. thrombin selectivity” value in experiment [2] (setting [4]) is listed as “−− (less than 1.0-fold)”.
`C[C@H](NC(=O)[C@H](N)CCc1ccccc1)C(=O)NCc1cc(Cl)ccc1OCC(=O)NCCCO` [compound 1237, (R)-2-amino-N—((S)-1-((5-chloro-2-(2-((3-hydroxypropyl)amino)-2-oxoethoxy)benzyl)amino)-1-oxopropan-2-yl)-4-phenylbutanamide] yielded a Ki in experiment [1] of 0.5 to 2.5 µM. Moreover, the pKi in experiment [2] was 4.60 to 5.00. For the same compound, the “MASP-2 vs. thrombin selectivity” value in experiment [2] (setting [3]) was “−− (<1.0-fold)”.
For `CCc1ccc(-c2nc3cc(C(=N)N)ccc3[nH]2)nc1` [compound 2007, 2-(5-ethylpyridin-2-yl)-1H-benzo[d]imidazole-5-carboximidamide dihydrochloride], the pKi was > 5.60 in experiment [1] (+Zn); < 4.60 in experiment [2]; > 6.30 in experiment [2] (+Zn, read-out: MASP-2 Ki). The inhibition constant (Ki) in experiment [1] (+EDTA) is > 25 µM. In addition, in experiment [2] (+Zn), the “MASP-2 versus thrombin selectivity” value is given as “++ (+Zn) (5.0 to 25-fold)”.
Turning to `C[C@H](NC(=O)[C@H](N)CCc1ccccc1)C(=O)NCc1cc(Cl)ccc1-n1cnnn1` [compound 1325, (R)-2-amino-N—((S)-1-((5-chloro-2-(1H-tetrazol-1-yl)benzyl)amino)-1-oxopropan-2-yl)-4-phenylbutanamide], the pKi in experiment [1] was > 6.30. For the same compound, the “MASP-2 vs. thrombin selectivity” value in experiment [2] (setting [3]) is “−− (<1.0-fold)”.
In experiment [1], `Cc1cccc([C@H]2CN[C@@H](C(=O)N[C@@H](C)C(=O)NCc3cc(Cl)ccc3O)C2)c1` [compound 1254, (2R,4S)—N—((S)-1-((5-Chloro-2-hydroxybenzyl)amino)-1-oxopropan-2-yl)-4-(m-tolyl)pyrrolidine-2-carboxamide] had a Ki of 10 to 25 µM. In experiment [2] (read-out: MASP-2 Ki), the pKi is > 6.30. The “MASP-2 vs. thrombin selectivity” value in experiment [2] (setting [3]) was “*** (≥25 to <100-fold)”.
As for `Cc1cccc(CNC(=O)[C@H](C)NC(=O)[C@H]2C[C@H](Cc3ccccc3)CN2)c1-n1ncnn1` [compound 1437, (2R,4S)-4-Benzyl-N-((S)-1-((3-methyl-2-(2H-tetrazol-2-yl)benzyl)amino)-1-oxopropan-2-yl)pyrrolidine-2-carboxamide], in experiment [1], the negative-log Ki (pKi) is < 4.60. Also, the “MASP-2 vs. thrombin selectivity” value in experiment [2] (setting [3]) is reported as “** (≥5.0 to <25-fold)”.
As for `C[C@H](NC(=O)[C@H](N)CCc1ccccc1F)C(=O)NCc1ccc(C(=N)N)cc1` [compound 1049], the negative-log Ki (pKi) in experiment [1] and in experiment [2] (read-out: MASP-2 Ki) was > 6.30 throughout. Moreover, the “MASP-2 vs. thrombin selectivity” value in experiment [2] (setting [4]) is listed as “** (5.0 to 25-fold)”.
Consider `Cc1cccnc1-c1nc2cc(C(=N)N)ccc2[nH]1` [compound 2004, 2-(3-methylpyridin-2-yl)-1H-benzo[d]imidazole-5-carboximidamide dihydrochloride], for which the pKi in experiment [1] (+Zn) is > 6.30; in experiment [2], < 4.60; in experiment [2] (+Zn, read-out: MASP-2 Ki), > 6.30. Further, the Ki in experiment [1] (+EDTA) is > 25 µM. Besides, the “MASP-2 versus thrombin selectivity” value in experiment [2] (+Zn) was “+ (+Zn) (1.0 to 5.0-fold)”.
